Like-named read-outs stand apart in the source and are kept apart here.
How the values were obtained:
PDI = test system: PDI; design: method as in PMID 22565308, PMID 22988091, PMID 27197150, PMID 24070012, PMID 24624466; details: reported PDI inhibitors, Figure 1b; read-out: PDI IC50 measured by the insulin-aggregation assay; cited from earlier work
[1] = test system: washed human platelets coincubated with A549 cancer cells; assay: Tumor cell-induced platelet secretion (PDGF, ATP); type: cell-based
Method: (§1) (a) Washed human platelets were coincubated with A549 cancer cells under the same conditions as described in Figure 4. Secretion of PDGF and ATP were determined with the enzyme-linked immunosorbent assay (ELISA) and bioluminescent assay, respectively. (b) A549 cancer cells were coincubated with washed human platelets at 37 °C and 5% CO2 in a cell culture incubator for 48 h. After washing with PBS, the numbers of viable cancer cells were determined by trypan blue exclusion. Data are mean ± SEM of at least three independent experiments.
Washed human platelets were coincubated with cancer cells under the same conditions as described in the TCIPA assay. After a 25 min incubation in the aggregometer, the samples were centrifuged at 13,000g for 1 min. The concentrations of PDGF-BB and ATP in the supernatants were determined using an ELISA kit (Abcam, Cambridge, UK) and an ATP bioluminescent assay kit (Sigma, MO, USA), respectively.[52]

[2] = target: purified human recombinant PDI (rPDI) (Homo sapiens, UniProt P07237); assay: Recombinant PDI reductase activity (Di-E-GSSG assay); details: human recombinant PDI, Di-E-GSSG
Sequence of purified human recombinant PDI (rPDI) (P07237 18-508): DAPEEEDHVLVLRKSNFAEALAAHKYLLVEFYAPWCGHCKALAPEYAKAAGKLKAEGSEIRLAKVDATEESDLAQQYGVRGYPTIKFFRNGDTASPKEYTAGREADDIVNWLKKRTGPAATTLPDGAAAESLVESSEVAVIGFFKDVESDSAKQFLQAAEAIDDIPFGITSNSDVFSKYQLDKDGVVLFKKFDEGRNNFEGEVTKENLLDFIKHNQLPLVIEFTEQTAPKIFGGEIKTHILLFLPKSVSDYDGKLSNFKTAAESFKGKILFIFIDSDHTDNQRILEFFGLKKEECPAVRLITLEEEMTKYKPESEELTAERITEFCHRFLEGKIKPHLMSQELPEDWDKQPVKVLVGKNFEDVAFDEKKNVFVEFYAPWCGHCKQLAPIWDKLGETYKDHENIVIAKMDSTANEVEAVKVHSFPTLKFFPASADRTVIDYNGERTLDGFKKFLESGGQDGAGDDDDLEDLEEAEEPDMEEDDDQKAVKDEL
Method: (§5) In this assay, a nonfluorescent substrate, dieosin glutathione disulfide (Di-E-GSSG), was reduced into a fluorescent product eosin-glutathione (E-GSH) by platelet surface PDI in the presence of 5 μM dithiothreitol (DTT).

[3] = test system: human vascular endothelial EA.hy926 cells; assay: Cell viability, resazurin assay, EA.hy926; details: EA.hy 926, 24 h, read-out: EAhy926 IC50
Method: (§6) Cells were maintained in a humidified incubator at 37 °C in 5% CO2, and cell viability was determined with the resazurin assay (Cayman Chemical, USA) after the incubation with compounds for indicated concentrations and times or DMSO as control.[72]

[4] = Parallel artificial membrane permeability assay (PAMPA); details: 50 μM, 25 ℃, 3 h, verapamil = 100%, ranitidine = 0%
Method: 1. Parallel artificial membrane permeability assay (PAMPA). […]
evolution instruments from pION Inc. In the PAMPA assay, a set of sandwich plates consists of a 96-well microtiter donor plate at the bottom and a 96-well filter acceptor plate on the top from […]
The stock solutions of samples were prepared at 10 mM concentrations in DMSO and stored at 0 ℃ before use. Before being added to a 96-well filter plate, the stock solution was diluted first with buffer to achieve a final sample concentration of 50 μM and to reduce the DMSO concentration below 1% (v/v). Each well of the 96-well donor plate was filled with a 200 μL diluted sample solution (50 μM), and the 96-well filter acceptor plate was then wetted with a 5 μL 2% w/v dioleyoylphosphatidylcholine (DOPC) in n-dodecane and subsequently placed on the donor wells.
Immediately, the acceptor wells were filled with 200 μL of buffer solution and the PAMPA plate sandwich was sealed and incubated at 25 ℃ for 3 h. After reaching the permeation time, the PAMPA plate sandwich was separated and transferred to 96-well UV plates respectively. The amounts of drugs in both the donor and acceptor compartments were measured by comparing the experimental spectra with the UV spectrum (220∼400 nm) obtained from reference standards.

A549 cancer cells = assay: Platelet-enhanced tumor cell proliferation; type: cell-based, human; details: A549 plus platelets, 48 h, 0.5 to 2 μM
Method: In order to examine platelet-enhanced cancer cell growth, A549 cancer cells were coincubated with platelets for 48 h.
as §1, with “Figure 5 Inhibitory effects of JUG derivatives 18 and 22 on tumor cell-induced platelet secretion and platelet-enhanced tumor cell proliferation. (a)” for “(a)”, “experiments. In (a), *P < 0.05; **P < 0.01; ***P < 0.001 as compared with vehicle control (DMSO). In (b), *P < 0.05; **P < 0.01; ***P < 0.001 as compared with A549 cells plus platelets.” for “experiments.”
A549 cells (1 × 10^4 cells/well) were seeded in a 96-well plate and coincubated with wash human platelets (1 × 10^7 cells/well) containing with 0.375% plasma for 48 h at 37 °C and 5% CO2 in a cell culture incubator. After washing with phosphate buffered saline, the numbers of viable cancer cells were determined by trypan blue exclusion.

[5] = test system: washed human platelets coincubated with A549, MDA-MB-231, or RPMI8226 cancer cells; assay: Tumor cell-induced platelet aggregation (TCIPA); type: cell-based; details: 2 μM; A549, MDA-MB-231, RPMI8226 cells, in the presence of plasma
breast cancer MDA-MB-231 = assay: Cell viability, resazurin assay, MDA-MB-231; details: Homo sapiens, MDA-MB-231, 24 h, read-out: MDA-MB-231 IC50
Method: as §6

glioma U87 = assay: Cell viability, resazurin assay, U87; details: Homo sapiens, 24 h, read-out: U87 IC50
Method: as §6

lung cancer A549 = assay: Cell viability, resazurin assay, A549; details: Homo sapiens, A549, 24 h, read-out: A549 IC50
Method: as §6

[6] = test system: multiple myeloma RPMI8226; assay: Cell viability, resazurin assay, RPMI8226; details: for S.I. (EAhy926/RPMI8226), selectivity index: 24 h IC50 ratio; for IC50: Homo sapiens
Method: as §6

platelet surface PDI = platelet surface PDI (Homo sapiens, UniProt P07237); assay: Cell surface PDI reductase activity on intact human platelets (Di-E-GSSG assay); details: read-out: Surface PDI IC50; intact human platelets, Di-E-GSSG, 5 μM DTT
Sequence of platelet surface PDI (P07237 18-508): as above
Method: as §5

ERp57 (PDIA3) = target: T1, ERp57 (PDIA3) (Homo sapiens, UniProt P30101); assay: ERp57 reductase assay (Di-E-GSSG); type: biochemical; details: ERp57 and ERp72 together, fold higher than required to inhibit PDI
T1 sequence (P30101 25-505): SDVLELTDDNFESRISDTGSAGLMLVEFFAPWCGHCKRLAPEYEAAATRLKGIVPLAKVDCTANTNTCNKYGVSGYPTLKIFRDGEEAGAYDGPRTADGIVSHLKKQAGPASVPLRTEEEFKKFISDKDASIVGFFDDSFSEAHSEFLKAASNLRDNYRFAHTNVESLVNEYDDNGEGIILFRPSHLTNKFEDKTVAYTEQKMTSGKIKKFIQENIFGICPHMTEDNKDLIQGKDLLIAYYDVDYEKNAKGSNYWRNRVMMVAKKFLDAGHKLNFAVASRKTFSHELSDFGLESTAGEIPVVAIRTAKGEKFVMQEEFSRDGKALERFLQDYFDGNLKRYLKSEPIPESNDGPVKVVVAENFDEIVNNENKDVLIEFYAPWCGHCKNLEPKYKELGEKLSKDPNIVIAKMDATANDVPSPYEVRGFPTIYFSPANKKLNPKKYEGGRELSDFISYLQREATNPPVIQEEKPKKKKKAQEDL
Excerpt: In addition to PDI, ERp57 (PDIA3) and ERp72 (PDIA4) are two other major members of the PDI family in both platelets and A549 cells.[62],[63]

washed human platelets [7] = assay: Collagen-induced platelet aggregation; type: cell-based; details: Platelet; washed human platelets, collagen (5 μg/mL)
Method: (§2) The antiplatelet effects of the JUG derivatives were evaluated by measuring human platelet aggregation, which can be regulated by cell surface PDI. Platelet aggregation was induced with platelet activators U46619 (a mimetic of thromboxane A2) and collagen (binding to GPVI).
(§3) Washed human platelets were prepared from acid citrate dextrose-anticoagulated blood of healthy human volunteers as described previously.[73] The study was approved by the Institutional Review Board of Kaohsiung Medical University, and informed consent was obtained from every volunteer. Platelet aggregation was measured by using a turbidimetric aggregometer (Chrono-Log Co., USA) under stirring conditions (1200 rpm) at 37 °C. The extent of platelet aggregation was measured as the maximal increase of light transmission after the addition of the stimulators U46619 and collagen.[73] In the TCIPA assay, platelet aggregation was induced by A549 (1 × 10^4 cells/mL), MDA-MB-231 (1 × 10^2 cells/mL), or RPMI8226 (1 × 10^5 cells/mL) cancer cells in the presence of 0.375% plasma.[74]

washed human platelets [8] = assay: U46619-induced platelet aggregation; type: cell-based; details: Platelet; washed human platelets, U46619 (1 μM)
Method: as §2, §3

[9] = UPLC-MS analysis of compound metabolites in water with or without GSH; type: physicochemical; details: 37 °C, 30 min
Method: (§4) GSH is the major cellular nonprotein thiol, which exists within cells at millimolar concentrations (1–8 mM) while is present extracellularly at only a few micromolar.[53] The high concentrations of intracellular GSH thus may compete with the binding of PDI to covalent PDI inhibitors.[54] […] In this assay, the noncovalent PDI inhibitor isoquercetin was used as a negative control.
Compounds (400 μM) were incubated in water (250 μL) with or without GSH (4 mM) at 37 °C for 30 min. The compound mixture was diluted with methanol (250 μL) and used for UPLC-MS analysis Metabolite analysis was performed on an ACQUITY UPLC I-Class/SQ Detector 2 (Waters, Milford, USA). The reverse phase BEH C18 column (100 mm × 2.1 mm, 1.7 μm, Waters) and VanGuard BEH C18 guard column (5 mm × 2.1 mm, 1.7 μm, Waters) were used. All data were acquired by Empower 3. The mobile phase for LC separation was Millipore water (A) and acetonitrile (B), and the program was as follows: 0.00 min 90% A → 0.50 min 90% A → 6.50 min 5% A → 8.50 min 5% A → 8.60 min 90% A → 9.00 min 90% A; at a rate of 0.4 mL/min for 9.00 min with 5 μL per injection. The temperature of the column oven was maintained at 40 °C. Mass spectrometer parameters were set as follows: cone voltage, 40.0 V, for positive/negative ion mode; desolvation temperature, 200 °C; cone gas flow(N2), 1 L/h; and desolvation gas flow (N2), 650 L/h.

Human rPDI = Human rPDI (Homo sapiens, UniProt P07237); assay: Effect of GSH on rPDI inhibition (Di-E-GSSG assay); type: biochemical; details: 10 μM compound, 1 mM GSH vs 5 μM DTT
Sequence of Human rPDI (P07237 18-508): as the sequence (P07237 18-508) above
Method: as §4
Data are mean ± SEM of three independent experiments.

[10] = RPMI-8226, 24 h, read-out: RPMI8226 IC50

IC50 ([2]; read-out: rPDI IC50, 5 μM DTT)	Permeability (%) [4]	IC50 (breast cancer MDA-MB-231)	IC50 (glioma U87)	IC50 (lung cancer A549)	IC50 [6, 10]	IC50 (platelet surface PDI)	IC50 (washed human platelets [7])	IC50 (washed human platelets [8])	Compound	IC50 (PDI)	IC50 ([2]; read-out: PDI IC50, Table 4)	IC50 [3]	S.I. (EAhy926/RPMI8226), selectivity index [6]	PDI-inhibitory activity in the presence of GSH (Human rPDI)	also measured
–	–	–	–	–	–	–	–	–	N#Cc1cccc(/C=C/C(=O)c2ccc(O)cc2)c1 [BAP-2]	0.93 µM	–	–	–	–	–
0.63 ± 0.12 µM	57.45%	4.42 ± 0.98 µM	3.22 ± 0.37 µM	8.95 ± 0.23 µM	0.66 ± 0.08 µM	0.62 ± 0.06 µM	0.5 ± 0.08 µM	1.54 ± 0.02 µM	CC(=O)OC[C@H]1O[C@H](OC2=CC(=O)c3cccc(O)c3C2=O)[C@H](OC(C)=O)[C@@H](OC(C)=O)[C@@H]1OC(C)=O [Compound 22, 2-(2,3,4,6-Tetra-α-O-acetylglucopyranosyl)-8-hydroxynaphthalene-1,4-dione]	–	0.63 ± 0.12 µM	5.42 ± 0.05 µM	8.2	–	tumor cell-induced increase in extracellular PDGF and ATP (platelet secretion) [1]: reduced; platelet-enhanced cancer cell growth (A549 cancer cells): to a lesser extent; prevention of TCIPA [5]: significantly prevented TCIPA; IC50 ([6]; RPMI-8226, 72 h, read-out: RPMI8226 IC50, 72 h): 0.048 µM; concentrations inhibiting ERp57 and ERp72 relative to PDI (ERp57 (PDIA3)): 4 to 7 fold
0.67 ± 0.09 µM	28.86%	11.3 ± 1.09 µM	7.39 ± 0.22 µM	12.6 ± 1.51 µM	3.07 ± 0.29 µM	0.46 ± 0.07 µM	6.65 ± 1.74 µM	3.54 ± 0.11 µM	CC(=O)OC[C@H]1O[C@@H](SC2=C(c3ccc(O)cc3O)C(=O)c3c(O)cccc3C2=O)[C@H](OC(C)=O)[C@@H](OC(C)=O)[C@@H]1OC(C)=O [Compound 31, 2-(2,4-Dihydroxyphenyl)-3-(2,3,4,6-tetra-O-acetyl-1-thio-β-D-glucopyranose)-8-hydroxynaphthalene-1,4-dione]	–	–	6.87 ± 0.21 µM	2.2	largely reduced by GSH	stability in aqueous conditions (UPLC-MS) ([9]; 400 μM in water): easily hydrolyzed in aqueous condition; GSH adduct formation after GSH treatment (UPLC-MS) ([9]; 400 μM, GSH 4 mM): significant amount of GSH addition product
–	–	–	–	–	–	–	–	–	CCOC(=O)C1(CCOc2ccccc2)CCN(Cc2ccc(O)c(Cl)c2)CC1 [ML359]	0.25 µM	–	–	–	–	–

Compound	IC50 ([2]; read-out: rPDI IC50, 5 μM DTT)	Permeability (%) [4]	IC50 (breast cancer MDA-MB-231)	IC50 (glioma U87)	IC50 (lung cancer A549)	IC50 [6, 10]	IC50 (platelet surface PDI)	IC50 (washed human platelets [7])	IC50 (washed human platelets [8])	IC50 (PDI)	IC50 ([2]; read-out: PDI IC50, Table 4)	IC50 [3]	S.I. (EAhy926/RPMI8226), selectivity index [6]	PDI-inhibitory activity in the presence of GSH (Human rPDI)	also measured
O=C1C=CC(=O)c2c(O)cccc21 [JUG (7), 5-hydroxy-1,4-naphthoquinone, reference compound]	1.1 ± 0.17 µM	83.43%	6.15 ± 0.78 µM	7.45 ± 0.33 µM	11.9 ± 0.6 µM	3.95 ± 0.7 µM	0.63 ± 0.07 µM	1.18 ± 0.14 µM	4.45 ± 0.47 µM	–	1.1 ± 0.17 µM	5.57 ± 0.02 µM	–	completely lost PDI-inhibitory activity	–

From publication PMC10945480 (Journal of Medicinal Chemistry, 2024)
